Data as given in patent US20230233569A1 (Revolution Medicines, Inc., priority 2020, published 2023).
“And” between values parts separate entries of the source, which are not always exact repeats. Equal entries are not always repeated.

Legend:
NCI-H358 (K-Ras G12C) = experiment: CellTiter-Glo cell viability assay, 5-day treatment; assay type: cell-based; conditions: Homo sapiens, NCI-H358, H358, K-Ras G12C; read-out: Additional H358 Cell Viability assay data (K-Ras G12C, IC50)
How it was run: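 Seeded cells received test compound by direct dispensing. On day 5 the plates sat at room temperature approximately 30 minutes, then luminescence was measured. Data were normalized to DMSO and curve-fitted with four parameters.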

NRAS Q61K = NRAS Q61K (Homo sapiens, UniProt P01111+P62937, Q61K); experiment: Disruption of BRAF RBD interaction with Ras (FRET / MOA assay, with Cyclophilin A); assay type: biochemical; conditions: NRAS Q61K; read-out: NRAS Q61K FRET data IC50
How it was run: (§1)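 TR-FRET in 25 mM HEPES pH 7.3, 100 mM NaCl, 5 mM MgCl2, 0.1% BSA: 25 μM Cyclophilin A, 12.5 nM His6-Ras-GMPPNP, 50 nM GST-BRAF RBD with compound (10-point 3-fold series from 30 μM), 3 h at 25° C. Anti-His Eu/anti-GST APC added, 1.5 h more; IC50 from decreased FRET ratio versus DMSO.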

NRAS Q61R = NRAS Q61R (Homo sapiens, UniProt P01111+P62937, Q61R); experiment: as above; assay type: biochemical; conditions: NRAS Q61R; read-out: NRAS Q61R FRET data IC50
How it was run: as §1

NRAS G12C = NRAS G12C (Homo sapiens, UniProt P01111+P62937, G12C); experiment: as above; assay type: biochemical; conditions: NRAS G12C; read-out: NRAS G12C FRET data IC50
[1] = test system: K-Ras G12C (NCI-H358 cells); experiment: Potency assay: pERK (AlphaLISA SureFire or In-Cell Western); assay type: cell-based; conditions: Homo sapiens, NCI-H358; H358 KRAS G12C; read-out: pERK EC50
Description: (§2) The purpose of this assay is to measure the ability of test compounds to inhibit K-Ras in cells. […] This procedure measures a decrease in cellular pERK in response to test compounds.
(§3) NCI-H358 cells were grown and maintained using media and procedures recommended by the ATCC. On the day prior to compound addition, cells were plated in 384-well cell culture plates (40 μl/well) and grown overnight in a 37° C., 5% CO2 incubator. Test compounds were prepared in 10, 3-fold dilutions in DMSO, with a high concentration of 10 mM. On the day of assay, 40 nL of test compound was added to each well of cell culture plate using an Echo550 liquid handler (LabCyte®). Concentrations of test compound were tested in duplicate. After compound addition, cells were incubated 4 hours at 37° C., 5% CO2. Following incubation, culture medium was removed and cells were washed once with phosphate buffered saline.
(§4) In some experiments, cellular pERK level was determined using the AlphaLISA SureFire Ultra p-ERK1/2 Assay Kit (PerkinElmer). Cells were lysed in 25 μL lysis buffer, with shaking at 600 RPM at room temperature. […] After a 2-hour incubation in the dark, 5 μL donor mix was added, plate was sealed, and incubated 2 hours at room temperature. Signal was read on an Envision plate reader (PerkinElmer) using standard AlphaLISA settings. Analysis of raw data was carried out in Excel (Microsoft) and Prism (GraphPad). Signal was plotted vs. the decadal logarithm of compound concentration, and IC50 was determined by fitting a 4-parameter sigmoidal concentration response model.
In other experiments, cellular pERK was determined by In-Cell Western. […] Fixed cells were washed 4 times for 5 minutes with TBS containing 0.1% Triton X-100 (TBST) and then blocked with 100 μL Odyssey blocking buffer (LI-COR) for 60 minutes at room temperature. […] Cells were washed 4 times for 5 minutes with TBST. Secondary antibody (IR-800CW rabbit, LI-COR, diluted 1:800) and DNA stain DRAQ5 (LI-COR, diluted 1:2000) were added and incubated 1-2 hours at room temperature. Cells were washed 4 times for 5 minutes with TBST. Plates were scanned on a LI-COR Odyssey CLx Imager. Analysis of raw data was carried out in Excel (Microsoft) and Prism (GraphPad). Signal was plotted vs. the decadal logarithm of compound concentration, and IC50 was determined by fitting a 4-parameter sigmoidal concentration response model.
as §2
as §3, with “mM. On day of” for “mM. On the day of”, “assay, 40 nl of test” for “assay, 40 nL of test”
as §4, with “μl” for “μL”, “sealed” for “sealed,”

KRAS G12S = KRAS G12S (Homo sapiens, UniProt P01116+P62937, G12S); experiment: Disruption of BRAF RBD interaction with Ras (FRET / MOA assay, with Cyclophilin A); assay type: biochemical; conditions: read-out: KRAS G12S FRET data, IC50
How it was run: (§5)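 TR-FRET: nucleotide-loaded K-Ras mutant or WT with Cyclophilin A and BRAF RBD, compound 10-point 3-fold from 30 μM final, 3 h at 25° C, then anti-His Eu (10 nM) and anti-GST APC (50 nM) for 1.5 h. Decreased FRET ratio versus DMSO gives IC50.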

KRAS WT = KRAS WT (Homo sapiens, UniProt P01116+P62937); experiment: as above; assay type: biochemical; conditions: KRAS WT; read-out: KRAS WT FRET data IC50
How it was run: as §5

KRAS G12V = KRAS G12V (Homo sapiens, UniProt P01116+P62937, G12V); experiment: as above; assay type: biochemical; conditions: KRAS G12V; read-out: KRAS G12V FRET data IC50
How it was run: as §5

KRAS G12D = KRAS G12D (Homo sapiens, UniProt P01116+P62937, G12D); experiment: as above; assay type: biochemical; conditions: read-out: KRAS G12D FRET data, IC50
How it was run: as §5

KRAS G12C = KRAS G12C (Homo sapiens, UniProt P01116+P62937, G12C); experiment: as above; assay type: biochemical; conditions: KRAS G12C; read-out: KRAS G12C FRET data IC50
How it was run: as §5

KRAS G13C = KRAS G13C (Homo sapiens, UniProt P01116+P62937, G13C); experiment: as above; assay type: biochemical; conditions: KRAS G13C; read-out: KRAS G13C FRET data IC50
How it was run: as §5

KRAS G13D = KRAS G13D (Homo sapiens, UniProt P01116+P62937, G13D); experiment: as above; assay type: biochemical; conditions: KRAS G13D; read-out: KRAS G13D FRET data IC50
How it was run: as §5

KRAS G12D, sequence (P01116 1-169 isoform P01116-2 G12D limits assumed): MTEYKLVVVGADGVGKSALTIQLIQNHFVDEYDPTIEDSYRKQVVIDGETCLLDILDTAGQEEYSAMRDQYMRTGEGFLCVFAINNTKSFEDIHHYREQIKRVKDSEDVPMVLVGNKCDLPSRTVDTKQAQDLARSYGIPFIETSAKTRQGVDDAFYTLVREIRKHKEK
KRAS G12D, sequence (P62937 whole entry): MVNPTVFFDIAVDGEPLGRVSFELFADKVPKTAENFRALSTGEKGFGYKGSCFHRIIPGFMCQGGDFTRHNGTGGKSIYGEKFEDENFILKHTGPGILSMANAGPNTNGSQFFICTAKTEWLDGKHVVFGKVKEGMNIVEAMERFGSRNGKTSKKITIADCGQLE
KRAS G13D, sequence (P01116 1-169 isoform P01116-2 G13D limits assumed): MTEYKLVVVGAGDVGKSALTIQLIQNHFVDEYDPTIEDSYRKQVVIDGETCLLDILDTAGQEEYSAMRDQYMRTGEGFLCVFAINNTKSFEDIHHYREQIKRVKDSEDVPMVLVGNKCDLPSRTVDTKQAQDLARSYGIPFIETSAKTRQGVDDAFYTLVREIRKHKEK
KRAS G13D, sequence (P62937 whole entry): as the sequence (P62937 whole entry) above
NRAS Q61R, sequence (P01111 whole entry Q61R): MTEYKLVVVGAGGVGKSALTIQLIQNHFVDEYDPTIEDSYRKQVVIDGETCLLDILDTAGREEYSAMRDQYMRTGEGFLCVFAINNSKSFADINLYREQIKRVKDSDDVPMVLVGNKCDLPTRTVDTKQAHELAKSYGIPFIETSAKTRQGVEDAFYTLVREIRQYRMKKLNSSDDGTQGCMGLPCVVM
NRAS Q61R, sequence (P62937 whole entry): as the sequence (P62937 whole entry) above
KRAS G13C, sequence (P01116 1-169 isoform P01116-2 G13C): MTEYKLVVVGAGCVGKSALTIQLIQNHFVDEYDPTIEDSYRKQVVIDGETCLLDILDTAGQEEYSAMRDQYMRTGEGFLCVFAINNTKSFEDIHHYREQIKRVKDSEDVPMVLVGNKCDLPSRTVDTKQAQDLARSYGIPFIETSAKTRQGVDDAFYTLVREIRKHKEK
KRAS G13C, sequence (P62937 whole entry): as the sequence (P62937 whole entry) above
KRAS G12S, sequence (P01116 1-169 isoform P01116-2 G12S limits assumed): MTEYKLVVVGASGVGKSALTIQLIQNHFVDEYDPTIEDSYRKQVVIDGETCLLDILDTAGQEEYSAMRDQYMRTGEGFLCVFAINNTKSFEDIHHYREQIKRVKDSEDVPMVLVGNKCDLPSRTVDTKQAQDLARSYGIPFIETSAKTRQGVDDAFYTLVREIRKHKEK
KRAS G12S, sequence (P62937 whole entry): as the sequence (P62937 whole entry) above
KRAS G12C, sequence (P01116 1-169 isoform P01116-2 G12C): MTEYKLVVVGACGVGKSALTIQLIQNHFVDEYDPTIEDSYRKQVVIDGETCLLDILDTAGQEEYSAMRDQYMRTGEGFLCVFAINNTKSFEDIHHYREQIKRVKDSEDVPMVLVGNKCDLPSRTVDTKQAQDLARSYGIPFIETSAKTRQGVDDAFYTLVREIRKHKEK
KRAS G12C, sequence (P62937 whole entry): as the sequence (P62937 whole entry) above
KRAS WT, sequence (P01116 1-169 isoform P01116-2 limits assumed): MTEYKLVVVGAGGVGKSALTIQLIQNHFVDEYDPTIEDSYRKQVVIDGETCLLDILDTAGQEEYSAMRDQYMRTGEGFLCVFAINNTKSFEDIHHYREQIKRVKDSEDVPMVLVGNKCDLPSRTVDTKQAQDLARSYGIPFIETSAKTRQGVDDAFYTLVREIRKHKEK
KRAS WT, sequence (P62937 whole entry): as the sequence (P62937 whole entry) above
NRAS Q61K, sequence (P01111 whole entry Q61K): as the sequence (P01111 whole entry Q61R) above, with R61K counted along it
NRAS Q61K, sequence (P62937 whole entry): as the sequence (P62937 whole entry) above
NRAS G12C, sequence (P01111 whole entry G12C): as the sequence (P01111 whole entry Q61R) above, with G12C, R61Q counted along it
NRAS G12C, sequence (P62937 whole entry): as the sequence (P62937 whole entry) above
KRAS G12V, sequence (P01116 1-169 isoform P01116-2 G12V limits assumed): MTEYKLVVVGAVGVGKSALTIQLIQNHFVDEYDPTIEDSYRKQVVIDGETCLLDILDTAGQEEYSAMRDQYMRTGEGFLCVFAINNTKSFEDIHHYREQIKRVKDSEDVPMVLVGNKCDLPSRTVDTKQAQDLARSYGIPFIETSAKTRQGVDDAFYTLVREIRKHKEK
KRAS G12V, sequence (P62937 whole entry): as the sequence (P62937 whole entry) above

IC50 (NCI-H358 (K-Ras G12C)) [µM]	IC50 (NRAS Q61K) [µM]	IC50 (NRAS Q61R) [µM]	IC50 (NRAS G12C) [µM]	EC50 [1] [µM]	IC50 (KRAS G12S) [µM]	IC50 (KRAS WT)	IC50 (KRAS G12V)	IC50 (KRAS G12D)	IC50 (KRAS G12C) [µM]	IC50 (KRAS G13C)	IC50 (KRAS G13D)	Structure (SMILES)
0.01 to 0.1	0.1 to 1	0.1 to 1	0.1 to 1	< 5	–	–	–	–	–	–	–	C=CC(=O)N1CCC[C@@H]2CN(C(=O)N(C)[C@H](C(=O)N[C@H]3Cc4nc(cs4)-c4ccc5c(c4)c(c(-c4cccnc4[C@H](C)OC)n5CC)CC(C)(C)COC(=O)C4CCCN(N4)C3=O)C(C)C)C[C@@H]21 (stereo partly drawn) [Example A619]
< 0.01	0.01 to 0.1	0.01 to 0.1	0.01 to 0.1	< 5	–	–	–	–	–	–	–	CO[C@@H](C)c1ncccc1-c1c2c3cc(ccc3n1CC(F)(F)F)-c1csc(n1)C[C@H](NC(=O)[C@H](C(C)C)N(C)C(=O)N1CCC3(CC1)CN(C(=O)/C=C/CF)C3)C(=O)N1CCCC(N1)C(=O)OCC(C)(C)C2 (stereo partly drawn) [Example A602]
0.1 to 1	0.1 to 1	0.1 to 1	0.01 to 0.1	< 5	–	–	–	–	–	–	–	C=CC(=O)N(C)[C@H]1CN(C(=O)N(C)[C@H](C(=O)N[C@H]2Cc3nc(cs3)-c3ccc4c(c3)c(c(-c3cccnc3[C@H](C)OC)n4CC)CC(C)(C)COC(=O)C3CCCN(N3)C2=O)C(C)C)C[C@@H]1F (stereo partly drawn) [Example A632]
0.1 to 1	–	–	0.01 to 0.1	< 5	0.1 to 1	0.1 to 1 µM	0.1 to 1 µM	1 to 10 µM	0.01 to 0.1	0.1 to 1 µM	0.1 to 1 µM	CCn1c(-c2cccnc2COC)c2c3cc(ccc31)-c1cc(O)cc(c1)C[C@H](NC(=O)[C@H](C(C)C)N(C)C(=O)[C@H]1CCN(C(=O)/C=C\CN(C)C)C1)C(=O)N1CCC[C@H](N1)C(=O)OCC(C)(C)C2 [Example A164]
0.01 to 0.1	–	–	0.1 to 1	< 5	1 to 10	1 to 10 µM	1 to 10 µM	> 10 µM	0.1 to 1	1 to 10 µM	> 10 µM	CC#C[S+]([O-])N1CC[C@H](C(=O)N(C)[C@H](C(=O)N[C@H]2Cc3cccc(c3)-c3ccc4c(c3)c(c(-c3cccnc3[C@H](C)OC)n4CC)CC(C)(C)COC(=O)[C@@H]3CCCN(N3)C2=O)C2CCCC2)C1 (stereo partly drawn) [Example A310]
< 0.01	–	–	0.01 to 0.1	< 5	1 to 10	1 to 10 µM	1 to 10 µM	> 10 µM	0.01 to 0.1	1 to 10 µM	> 10 µM	CCn1c(-c2cccnc2[C@H](C)OC)c2c3cc(ccc31)-c1cccc(c1)C[C@H](NC(=O)[C@H](C(C)C)N(C)C(=O)[C@H]1CCN(C(=O)C#CC3CC(F)(F)CN3C)C1)C(=O)N1CCC[C@H](N1)C(=O)OCC(C)(C)C2 (stereo partly drawn) [Example A526]
0.01 to 0.1	–	–	0.1 to 1	< 5	> 10	> 10 µM	> 10 µM	> 10 µM	0.01 to 0.1	1 to 10 µM	> 10 µM	CCn1c(-c2cccnc2[C@H](C)OC)c2c3cc(ccc31)-c1cc(sn1)C[C@H](NC(=O)[C@H](C(C)C)N(C)C(=O)[C@@H]1CCN(C(=O)C#CCN3CCOCC3)C1)C(=O)N1CCC[C@H](N1)C(=O)OCC(C)(C)C2 [Example A201]

Structure (SMILES)	IC50 (NCI-H358 (K-Ras G12C)) [µM]	IC50 (NRAS Q61K) [µM]	IC50 (NRAS Q61R) [µM]	IC50 (NRAS G12C) [µM]	EC50 [1] [µM]	IC50 (KRAS G12S) [µM]	IC50 (KRAS WT)	IC50 (KRAS G12V)	IC50 (KRAS G12D)	IC50 (KRAS G12C) [µM]	IC50 (KRAS G13C)	IC50 (KRAS G13D)
C=CC(=O)N(C)CCN(C)C(=O)N(C)[C@H](C(=O)N[C@H]1Cc2nc(cs2)-c2ccc3c(c2)c(c(-c2cccnc2[C@H](C)OCC)n3CC)CC(C)(C)COC(=O)[C@@H]2CCCN(N2)C1=O)C(C)C [Example A437]	0.01 to 0.1	–	–	0.01 to 0.1	< 5	0.1 to 1	0.1 to 1 µM	0.1 to 1 µM	1 to 10 µM	0.01 to 0.1	0.1 to 1 µM	1 to 10 µM
CCn1c(-c2cccnc2[C@H](C)OC)c2c3cc(ccc31)-c1cc(O)cc(c1)C[C@H](NC(=O)[C@H](C(C)C)N(C)C(=O)c1nc(NC(=O)/C=C/CN(C)C)cs1)C(=O)N1CCC[C@H](N1)C(=O)OCC(C)(C)C2 [Example A258]	0.1 to 1	–	–	0.1 to 1	< 5	1 to 10	0.1 to 1 µM and 1 to 10 µM	0.1 to 1 µM and 1 to 10 µM	1 to 10 µM and > 10 µM	0.1 to 1	< 0.01 µM and 0.01 to 0.1 µM	0.1 to 1 µM and 1 to 10 µM
